Data reported in ChEMBL document CHEMBL4622898, “Synthesis, in vitro ADME profiling and in vivo pharmacological evaluation of novel glycogen phosphorylase inhibitors” (Bioorg Med Chem Lett, 2020).
pIC50: −log10 of the molar value. Values after ≈ are worked out from the molar mass of the structure shown. Active and inactive are the calls of the source. The calls are words filed in the database; no cut-off is given here.

What was measured:
HepG2 = assay: Inhibition of glycogenolysis in human HepG2 cells assessed as GCN-stimulated glycogen breakdown after 5 mins; type: functional, cell-based; conditions: HepG2, 5 min
[1] = Inhibition of rabbit muscle Glycogen phosphorylase measured phosphate release from glucose-1-phosphate; set-up: species or system Oryctolagus cuniculus
Hepatocyte = assay: Inhibition of glycogenolysis in rat hepatocytes assessed as GCN-stimulated glycogen breakdown after 5 mins; type: functional, cell-based
[2] = Lipophilicity, log D of the compound in 1-Octanol-phosphate buffer at pH 7.4; type: physicochemical
[3] = Clearance in mouse liver microsomes; type: ADME, Microsome
[4] = Half life in mouse liver microsomes; type: ADME, Microsome
physchem = conditions: buffer, pH 7.4
Description: Kinetic solubility of compound at pH 7.4 by high-throughput kinetic solubility assay

[5] = Stability of compound in mouse plasma assessed as compound degradation measured up to 24 hrs; type: ADME, cell-free
[6] = Stability of compound in simulated intestinal fluid assessed as compound degradation measured up to 1 hr; type: physicochemical; conditions: simulated gi fluid
[7] = Intrinsic clearance in mouse liver microsomes; type: ADME, Microsome
[8] = Stability of compound in simulated gastric fluid assessed as compound degradation measured up to 24 hrs; type: physicochemical; conditions: simulated gi fluid
[9] = Stability of compound in mouse plasma assessed as compound degradation measured up to 0.5 hrs; type: ADME, cell-free
[10] = Stability of compound in simulated gastric fluid assessed as compound degradation measured up to 24 hrs relative to control; type: physicochemical; conditions: read-out: Drug degradation
[11] = Aqueous solubility of compound; type: physicochemical; conditions: buffer
[12] = Inhibition of recombinant human liver glycogen phosphorylase a expressed in baculovirus-infected Sf9 cells using glucose-1-phosphate as substrate in presence of 7.5 mM glucose
Mus musculus [13] = assay: Hypoglycemic activity in adrenaline-induced diabetic mouse assessed as fasted plasma glucose level at 200 mg/kg, po measured after 90 min (reference value: 7.56 +/- 0.49); type: functional
Mus musculus [14] = assay: Hypoglycemic activity in adrenaline-induced diabetic mouse assessed as fasted plasma glucose level at 200 mg/kg, po measured after 30 min (reference value: 9.58 +/- 0.44); type: functional
Mus musculus [15] = assay: Hypoglycemic activity in adrenaline-induced diabetic mouse assessed as fasted plasma glucose level at 200 mg/kg, po measured immediately (reference value: 4.84 +/- 0.15); type: functional
Mus musculus [16] = assay: Hypoglycemic activity in adrenaline-induced diabetic mouse assessed as fasted plasma glucose level at 200 mg/kg, po measured after 60 min (reference value: 8.41 +/- 0.48); type: functional
Mus musculus [17] = assay: Hypoglycemic activity in adrenaline-induced diabetic mouse assessed as glucose AUC at 200 mg/kg, po measured up to 90 min (reference value: 482.63 +/- 21.01 mg/dL.min); type: functional, organism-based; set-up: dose 200 mg/kg, time < 1.5 hr
Mus musculus [18] = assay: Hypoglycemic activity in adrenaline-induced diabetic mouse assessed as fasted plasma glucose level at 25 mg/kg, po measured after 30 min (reference value: 9.58 +/- 0.44); type: functional
[19] = Stability of compound in simulated intestinal fluid assessed as compound degradation measured up to 6 hrs; type: physicochemical; conditions: simulated gi fluid
Mus musculus [20] = assay: Hypoglycemic activity in adrenaline-induced diabetic mouse assessed as glucose AUC at 50 mg/kg, po measured up to 90 min (reference value: 482.63 +/- 21.01 mg/dL.min); type: functional, organism-based; set-up: time < 1.5 hr, dose 50 mg/kg
Mus musculus [21] = assay: Hypoglycemic activity in adrenaline-induced diabetic mouse assessed as fasted plasma glucose level at 12.5 mg/kg, po measured after 30 min (reference value: 9.58 +/- 0.44); type: functional
Mus musculus [22] = assay: Hypoglycemic activity in adrenaline-induced diabetic mouse assessed as fasted plasma glucose level at 25 mg/kg, po measured after 60 min (reference value: 8.41 +/- 0.48); type: functional
Mus musculus [23] = assay: Hypoglycemic activity in adrenaline-induced diabetic mouse assessed as fasted plasma glucose level at 50 mg/kg, po measured after 60 min (reference value: 8.41 +/- 0.48); type: functional
Mus musculus [24] = organism: Mus musculus; assay: Hypoglycemic activity in adrenaline-induced diabetic mouse assessed as blood glucose level measured at 1.5 hrs (reference value: 486.15 +/- 22.65 mg/dl); type: functional
Mus musculus [25] = assay: Hypoglycemic activity in adrenaline-induced diabetic mouse assessed as glucose AUC at 12.5 mg/kg, po measured up to 90 min (reference value: 482.63 +/- 21.01 mg/dL.min); type: functional, organism-based; set-up: time < 1.5 hr, dose 12.5 mg/kg
Mus musculus [26] = assay: Hypoglycemic activity in adrenaline-induced diabetic mouse assessed as fasted plasma glucose level at 12.5 mg/kg, po measured after 60 min (reference value: 8.41 +/- 0.48); type: functional
Mus musculus [27] = assay: Hypoglycemic activity in adrenaline-induced diabetic fasted mouse assessed as reduction in plasma glucose level at 12.5 to 50 mg/kg, po; type: functional, organism-based
Mus musculus [28] = assay: Hypoglycemic activity in adrenaline-induced diabetic mouse assessed as fasted plasma glucose level at 25 mg/kg, po measured after 90 min (reference value: 7.56 +/- 0.49); type: functional
Mus musculus [29] = assay: Hypoglycemic activity in adrenaline-induced diabetic mouse assessed as fasted plasma glucose level at 12.5 mg/kg, po measured immediately (reference value: 4.84 +/- 0.15); type: functional
Mus musculus [30] = assay: Hypoglycemic activity in adrenaline-induced diabetic mouse assessed as fasted plasma glucose level at 50 mg/kg, po measured after 90 min (reference value: 7.56 +/- 0.49); type: functional
Mus musculus [31] = assay: Hypoglycemic activity in adrenaline-induced diabetic mouse assessed as fasted plasma glucose level at 12.5 mg/kg, po measured after 90 min (reference value: 7.56 +/- 0.49); type: functional
Mus musculus [32] = assay: Hypoglycemic activity in adrenaline-induced diabetic mouse assessed as fasted plasma glucose level at 25 mg/kg, po measured immediately (reference value: 4.84 +/- 0.15); type: functional
Mus musculus [33] = assay: Hypoglycemic activity in adrenaline-induced diabetic mouse assessed as fasted plasma glucose level at 50 mg/kg, po measured after 30 min (reference value: 9.58 +/- 0.44); type: functional
Mus musculus [34] = assay: Hypoglycemic activity in adrenaline-induced diabetic mouse assessed as fasted plasma glucose level at 50 mg/kg, po measured immediately (reference value: 4.84 +/- 0.15); type: functional
Mus musculus [35] = assay: Hypoglycemic activity in adrenaline-induced diabetic mouse assessed as glucose AUC at 25 mg/kg, po measured up to 90 min (reference value: 482.63 +/- 21.01 mg/dL.min); type: functional, organism-based; set-up: dose 25 mg/kg, time < 1.5 hr

Row | SMILES | pIC50 (HepG2) | pIC50 [1] | pIC50 (Hepatocyte) | logD [2] | CLint scaled [3] [mL/min/kg] | half-life [4] [min] | solubility kinetic (physchem) [µM] | Stability [6] | CLint [7] [µL/min/mg] | further results
1 | O=C(N[C@@H](Cc1ccc(O)cc1)c1nc2ccccc2[nH]1)c1cc2cc(Cl)ccc2[nH]1 | 5.08 | 6.24 | 5.02 |  |  |  |  |  |  | 
2 | CN(C)CCCN1c2ccccc2Sc2ccc(Cl)cc21 [CHLORPROMAZINE] |  |  |  | 3.23 |  |  |  |  |  | 
3 | NC(=O)[C@@H](Cc1ccccc1)NC(=O)CNC(=O)c1cc2cc(Cl)ccc2[nH]1 | 5.19 | 6.26 | 5.12 | 3.32 | < 38 | > 145 | 36.8 (≈ 14.7 µg/mL) | Unstable | < 9.6 | Stability [5]: Stable; Stability [8]: Stable
4 | O=C(O)Cc1ccccc1Nc1c(Cl)cccc1Cl [DICLOFENAC] |  |  |  |  | 203 | 27.1 |  |  | 51.2 | 
5 | COC(=O)CNC(=O)[C@H](Cc1ccccc1)NC(=O)c1cc2cc(Cl)ccc2[nH]1 | 6.18 | 7.31 | 6.14 | 3.95 | 356 | 15.4 | 1.89 (≈ 0.782 µg/mL) | Unstable | 90 | Stability [9]: Unstable; degraded at 24 h [10]: 50%
6 | CN(C)C(=O)[C@H](O)[C@H](Cc1ccccc1)NC(=O)c1cc2cc(Cl)ccc2[nH]1 | 5.48 | 7.04 | 5.50 |  |  |  |  |  |  | solubility [11]: < 1000 µg/mL; pIC50 [12]: 6.96
7 | CN(C)C(=N)NC(=N)N [METFORMIN] |  |  |  |  |  |  |  |  |  | OD (Mus musculus [13]): 5; plasma glucose (Mus musculus [14]): 8.85 mM; OD (Mus musculus [15]): 4.76; plasma glucose (Mus musculus [16]): 5.79 mM; AUC (Mus musculus [17]): 374 mg/dL×min
8 | O=C(O)CNC(=O)[C@H](Cc1ccccc1)NC(=O)c1cc2cc(Cl)ccc2[nH]1 | 5.49 | 6.54 | 5.15 | 0.72 | < 38 | > 145 | 188 (≈ 75.1 µg/mL) | Stable | < 9.6 | plasma glucose (Mus musculus [18]): 9.52 mM; Stability [19]: Unstable; AUC (Mus musculus [20]): 416 mg/dL×min; plasma glucose (Mus musculus [21]): 8.92 mM; plasma glucose (Mus musculus [22]): 7.62 mM; plasma glucose (Mus musculus [23]): 6.83 mM; Activity (Mus musculus [24]): 446.25 mg/dL; AUC (Mus musculus [25]): 449 mg/dL×min; plasma glucose (Mus musculus [26]): 7.4 mM; Activity (Mus musculus [27]): Active; plasma glucose (Mus musculus [28]): 6.7 mM; Stability [5]: Stable; OD (Mus musculus [29]): 4.89; plasma glucose (Mus musculus [30]): 6.05 mM; Stability [8]: Stable; plasma glucose (Mus musculus [31]): 7.47 mM; OD (Mus musculus [32]): 4.85; plasma glucose (Mus musculus [33]): 9.03 mM; OD (Mus musculus [34]): 4.86; AUC (Mus musculus [35]): 451 mg/dL×min
